Results published in patent US11730712B2, “Functionalized long-chain hydrocarbon mono- and di-carboxylic acids and derivatives thereof, and their use for the prevention or treatment of disease” (ESPERVITA THERAPEUTICS, INC., priority 2021, dated 2023).

Test system: liver fibrosis gene panel (770 genes)
Assay: Nanostring nCounter Fibrosis panel gene expression in liver of DEN-injected mice
Assay type: in vivo, mouse
Details: vs vehicle
Protocol: Nanostring Analysis. RNA was extracted from paired liver and tumor tissue from vehicle, Compound I-1 (100 mg/kg) and Compound I-32 (100 mg/kg) treated mice using an RNeasy kit (Qiagen, Calif., USA) as per manufacturer's protocol. All RNA samples passed the BioAnalyzer quality control test. The expression of target genes in liver and tumor were analyzed using the nCounter Fibrosis and Cancer Panel (NanoString Technologies, Inc., WA, USA), respectively according to manufacturer's protocol at the McMaster Genomics Facility. Technical and biological normalization against global geometric mean was performed in nSolver 4.0 software (NanoString Technologies). Technical normalization was performed in the nSolver software (version 4.0.70) by normalizing sample target raw counts to the geometric mean of positive control spike-ins. Biological normalization was performed by normalizing sample target raw counts to the geometric mean of selected housekeeping genes (Ppia, Nubp1, Nol7, Armh3, Rplp0, Cnot10, Pgk1, and Acad9). Pathway scores were calculated as the first principal component of the normalized expression values for all genes in each pathway and samples were compiled according to experimental groups to determine average pathway scores. Statistical significance was calculated between experimental groups using multiple t-tests and p-values were corrected for multiple comparisons using Benjamin-Hochberg false discovery rate.
Molecular analysis. To identify the pathways modulated in the liver and tumor tissue, nanostring analysis of fibrosis and cancer, pathways, respectively were completed in an n=8 mice treated with vehicle or Compound I-32 or Compound I-1 at 100 mg/kg.

CC(C)(CCCCc1ccc(CCCCC(C)(C)C(=O)O)cc1)C(=O)O [Compound I-1, 6-[4-(5-carboxy-5-methylhexyl)-phenyl]-2,2-dimethylhexanoic acid]
Tin1 Log2FC (NM_011602, 100 mg/kg): −0.237
Txn1 Log2FC (NM_011660, 100 mg/kg): 0.281
Vegfb Log2FC (NM_011697, 100 mg/kg): 0.603
Vim Log2FC (NM_011701, 100 mg/kg): −0.309
Adh4 Log2FC (NM_011996, 100 mg/kg): −0.808
Apoa2 Log2FC (NM_013474, 100 mg/kg): 0.172
Apoh Log2FC (NM_013475, 100 mg/kg): −0.225
C9 Log2FC (NM_013485, 100 mg/kg): −1.55
Cpt1a Log2FC (NM_013495, 100 mg/kg): −0.302
Creb3 Log2FC (NM_013497, 100 mg/kg): −0.38
P3h3 Log2FC (NM_013534, 100 mg/kg): −0.96
Ptpn6 Log2FC (NM_013545, 100 mg/kg): 0.326
Slc25a10 Log2FC (NM_013770, 100 mg/kg): 0.508
H2-M3 Log2FC (NM_013819, 100 mg/kg): −0.69
Xbp1 Log2FC (NM_013842, 100 mg/kg): −0.397
Col5a1 Log2FC (NM_015734, 100 mg/kg): −0.513
Isg15 Log2FC (NM_015783, 100 mg/kg): −0.727
C6 Log2FC (NM_016704, 100 mg/kg): −0.969
Smad3 Log2FC (NM_016769, 100 mg/kg): −0.317
Irf3 Log2FC (NM_016849, 100 mg/kg): −0.154
Ywhag Log2FC (NM_018871, 100 mg/kg): 0.305
Fbp1 Log2FC (NM_019395, 100 mg/kg): −0.878
Ndufa1 Log2FC (NM_019443, 100 mg/kg): 0.226
Cpb2 Log2FC (NM_019775, 100 mg/kg): −0.58
Uba52 Log2FC (NM_019883, 100 mg/kg): 0.484
Ube2d2a Log2FC (NM_019912, 100 mg/kg): −0.237
Aldh9a1 Log2FC (NM_019993, 100 mg/kg): 0.545
Angpti4 Log2FC (NM_020581, 100 mg/kg): 0.707
Isg20 Log2FC (NM_020583, 100 mg/kg): −0.48
Abcb11 Log2FC (NM_021022, 100 mg/kg): −0.442
Tlr4 Log2FC (NM_021297, 100 mg/kg): −0.608
Mlxipl Log2FC (NM_021455, 100 mg/kg): 0.439
Cxcl12 Log2FC (NM_021704, 100 mg/kg): −0.597
Apoc3 Log2FC (NM_023114, 100 mg/kg): −0.657
Kng1 Log2FC (NM_023125, 100 mg/kg): −0.396
Cxcl16 Log2FC (NM_023158, 100 mg/kg): −0.374
Em1 Log2FC (NM_023913, 100 mg/kg): −0.533
Sec61b Log2FC (NM_024171, 100 mg/kg): −0.355
Cyp27a1 Log2FC (NM_024264, 100 mg/kg): −0.594
Fabp4 Log2FC (NM_024406, 100 mg/kg): 1.01
Spop Log2FC (NM_025287, 100 mg/kg): 0.186
Ndufb5 Log2FC (NM_025316, 100 mg/kg): 0.415
Ssr2 Log2FC (NM_025448, 100 mg/kg): −0.177
Psenen Log2FC (NM_025498, 100 mg/kg): −0.126
Ndufc1 Log2FC (NM_025523, 100 mg/kg): 0.438
Cox6b1 Log2FC (NM_025628, 100 mg/kg): 0.532
Uqcrh Log2FC (NM_025641, 100 mg/kg): 0.311
Uqcrfs1 Log2FC (NM_025710, 100 mg/kg): 0.255
Map1lc3a Log2FC (NM_025735, 100 mg/kg): 0.807
Ndufb8 Log2FC (NM_026061, 100 mg/kg): 0.327
Erp29 Log2FC (NM_026129, 100 mg/kg): −0.217
Uqcrb Log2FC (NM_026219, 100 mg/kg): 0.476
Hikeshi Log2FC (NM_026304, 100 mg/kg): 0.233
Sugt1 Log2FC (NM_026474, 100 mg/kg): 0.185
Atg101 Log2FC (NM_026566, 100 mg/kg): −0.436
Ndufs3 Log2FC (NM_026688, 100 mg/kg): 0.26
Anapc10 Log2FC (NM_026904, 100 mg/kg): −0.291
Ifi35 Log2FC (NM_027320, 100 mg/kg): −0.465
Pgm2 Log2FC (NM_028132, 100 mg/kg): 0.361
Phykpl Log2FC (NM_028398, 100 mg/kg): −0.165
Pik3cb Log2FC (NM_029094, 100 mg/kg): −0.421
Tlr1 Log2FC (NM_030682, 100 mg/kg): −1.09
Hcar2 Log2FC (NM_030701, 100 mg/kg): 1.71
Cpn1 Log2FC (NM_030703, 100 mg/kg): 0.371
Slc2a2 Log2FC (NM_031197, 100 mg/kg): −0.543
Lamtor2 Log2FC (NM_031248, 100 mg/kg): 0.195
Loxl2 Log2FC (NM_033325, 100 mg/kg): −0.689
Derl2 Log2FC (NM_033562, 100 mg/kg): −0.334
Ube2n Log2FC (NM_080560, 100 mg/kg): −0.15
Elovl6 Log2FC (NM_130450, 100 mg/kg): 0.819
Acaca Log2FC (NM_133360, 100 mg/kg): 0.655
Fgg Log2FC (NM_133862, 100 mg/kg): −0.517
Acacb Log2FC (NM_133904, 100 mg/kg): 0.612
Il1rap Log2FC (NM_134103, 100 mg/kg): −0.815
Ptpa Log2FC (NM_138748, 100 mg/kg): 0.372
Mylk Log2FC (NM_139300, 100 mg/kg): −0.458
Fcgr4 Log2FC (NM_144559, 100 mg/kg): −0.541
Aldob Log2FC (NM_144903, 100 mg/kg): −0.665
C1s1 Log2FC (NM_144938, 100 mg/kg): −0.902
Txndc5 Log2FC (NM_145367, 100 mg/kg): −0.284
Jak1 Log2FC (NM_146145, 100 mg/kg): −0.203
C8a Log2FC (NM_146148, 100 mg/kg): −1.21
Pkhd1 Log2FC (NM_153179, 100 mg/kg): −0.99
Nckap1l Log2FC (NM_153505, 100 mg/kg): −0.473
Mbtps2 Log2FC (NM_172307, 100 mg/kg): 0.309
Cyp4a12a Log2FC (NM_177406, 100 mg/kg): 1.65
Acaa2 Log2FC (NM_177470, 100 mg/kg): 0.464
Ep300 Log2FC (NM_177821, 100 mg/kg): −0.258
Jmjd4 Log2FC (NM_178659, 100 mg/kg): −0.385
Nceh1 Log2FC (NM_178772, 100 mg/kg): 0.592
Hadha Log2FC (NM_178878, 100 mg/kg): 1.12
Mfap3 Log2FC (NM_180599, 100 mg/kg): −0.377
Fgb Log2FC (NM_181849, 100 mg/kg): −0.336
Bst2 Log2FC (NM_198095, 100 mg/kg): 0.596
H2-Ab1 Log2FC (NM_207105, 100 mg/kg): −0.716
Acsl4 Log2FC (NM_207625, 100 mg/kg): 0.645
Cflar Log2FC (NM_207653, 100 mg/kg): −0.214
Egfr Log2FC (NM_207655, 100 mg/kg): −1.12
Mapk9 Log2FC (NM_207692, 100 mg/kg): 0.185
Stat3 Log2FC (NM_213659, 100 mg/kg): −0.646
H2-K1 Log2FC (NM_001001892, 100 mg/kg): −0.284
Kdm2a Log2FC (NM_001001984, 100 mg/kg): −0.312
Depdc5 Log2FC (NM_001025426, 100 mg/kg): −0.27
Cfhr2 Log2FC (NM_001025575, 100 mg/kg): −0.626
Ndufs5 Log2FC (NM_001030274, 100 mg/kg): 0.414
Itga1 Log2FC (NM_001033228, 100 mg/kg): −0.394
Ndufb6 Log2FC (NM_001033305, 100 mg/kg): 0.243
Xaf1 Log2FC (NM_001037713, 100 mg/kg): −0.742
Banf1 Log2FC (NM_001038231, 100 mg/kg): 0.319
Smurf1 Log2FC (NM_001038627, 100 mg/kg): −0.697
Nrp2 Log2FC (NM_001077403, 100 mg/kg): 0.665
Ptafr Log2FC (NM_001081211, 100 mg/kg): −0.518
Brpf3 Log2FC (NM_001081315, 100 mg/kg): 0.434
Rapgef2 Log2FC (NM_001099624, 100 mg/kg): −0.262
Kng2 Log2FC (NM_001102410, 100 mg/kg): −0.305
Aqp8 Log2FC (NM_001109045, 100 mg/kg): −0.993
Igf1 Log2FC (NM_001111274, 100 mg/kg): −0.496
Lrrc32 Log2FC (NM_001113379, 100 mg/kg): −0.438
Stat5b Log2FC (NM_001113563, 100 mg/kg): −0.322
Il1r1 Log2FC (NM_001123382, 100 mg/kg): −0.998
Aldh7a1 Log2FC (NM_001127338, 100 mg/kg): −0.252
Chuk Log2FC (NM_001162410, 100 mg/kg): 0.202
Mmm1 Log2FC (NM_001163507, 100 mg/kg): −0.231
Cyfip1 Log2FC (NM_001164661, 100 mg/kg): −0.264
Akt1 Log2FC (NM_001165894, 100 mg/kg): −0.226
Cd84 Log2FC (NM_001252472, 100 mg/kg): −0.439
Apoc2 Log2FC (NM_001277944, 100 mg/kg): −1.26
Cd68 Log2FC (NM_001291058, 100 mg/kg): −0.613
Col6a3 Log2FC (XM_897036, 100 mg/kg): −1.06
